Assay results: patent US20220370636A1, “NICOTINAMIDE ADENINE DINUCLEOTIDE ACTIVATOR AND USE THEREOF” (University of South Florida, priority 2021, published 2022)
Entries after “also recorded” stand apart in the source; their conditions may differ.

Experiments:
[1] = tested on: C2C12 cells; experiment: Scratch (wound closure) assay in C2C12 cells; format: cell-based, mouse; conditions: for percent wound closure: 16 h, vs control cells
Protocol: In vitro model (C2C12 skeletal muscle myoblast) of scratch assay (wound) was created by using pipette tip and recovery of cells was monitored for 16 hours after the scratch. The percent wound closure was measured by the area indicated (FIG. 5B).
Scratch assay in C2C12 cells. C2C12 cells were seeded into either 6-well or 12-well plates and allowed to grow up to 90% confluence. Scratch or wound injury was induced by streaking the plate (2-3 streaks/well) using a 1000 μL sterilized pipette tip in each well. Treatments were performed with the vehicle or P7C3 groups within the cell culture media. Images were taken of each streak immediately after with an Echo Rebel microscope, and the cell culture plates were then placed in the incubator for 16 h. After 16 h, images were obtained at the same location of the streaks utilizing the coordinates marked. The ImageJ software (NIH, USA) was utilized to calculate the areas of the scratches at the 0 h and 16 h time point, with the area at 16 h divided by the area at 0 h to determine the percent wound closure.
Three sets of experiments were performed with this assay to determine the percent wound closure with the P7C3 solution, the P7C3 NPs, the A01B conjugate P7C3 NPs, and the P7C3 scrambled aptamer NPs. For assessing the effects of the P7C3 solution on percent wound closure, the cells were treated with the vehicle control (DMSO) and 100 nM-2 μM P7C3. For determining the effect of P7C3 NPs, the cells were treated with the vehicle control (blank NPs) and 10 nM-1 μM P7C3 NPs. Finally, for the targeted A01B conjugated P7C3 NPs and scrambled aptamer conjugated P7C3 NPs, the cells were treated with the vehicle controls (blank aptamer conjugated NPs) and 100 nM each of both aptamers conjugated NPs.

[2] = tested on: RAW264.7 cells; experiment: Morphology and number of activated cells in LPS-induced RAW264.7 macrophage; format: cell-based; conditions: LPS 1 μg/ml + P7C3 1 μM
Protocol: FIGS. 3A-3E show morphology and number of activated cells in LPS-induced RAW264.7 macrophage in vitro. RAW264.7 cells were cultured in complete medium (FIG. 3A) or contained with P7C3 (FIG. 3B, 1 μM), LPS (FIG. 3C, 1 μg/ml), and LPS+P7C3 (FIG. 3D) for […]. The photo was taken under inverted microscopy (Rebel, ECHO) at 20× mag. The elongated and pseudopod shape of cells were considered as activated (yellow star), but the small and round shape of cells was considered as inactivated (yellow arrow). […] The statistical analysis was performed using two-way ANOVA with Tukey's multiple comparisons test in GraphPad Prism 8.4.3, and p≤0.05 was considered statistically significant.

[3] = target: T1, Nampt (Mus musculus, UniProt Q99KQ4); experiment: Cardiac Nampt enzymatic activity in db/db mice; format: in vivo; conditions: 10 mg/kg body weight/day, i.p., four-week, vs vehicle
T1 construct: from tissue; host or cells: whole heart homogenate of db/db mice
T1 sequence (Q99KQ4 whole entry): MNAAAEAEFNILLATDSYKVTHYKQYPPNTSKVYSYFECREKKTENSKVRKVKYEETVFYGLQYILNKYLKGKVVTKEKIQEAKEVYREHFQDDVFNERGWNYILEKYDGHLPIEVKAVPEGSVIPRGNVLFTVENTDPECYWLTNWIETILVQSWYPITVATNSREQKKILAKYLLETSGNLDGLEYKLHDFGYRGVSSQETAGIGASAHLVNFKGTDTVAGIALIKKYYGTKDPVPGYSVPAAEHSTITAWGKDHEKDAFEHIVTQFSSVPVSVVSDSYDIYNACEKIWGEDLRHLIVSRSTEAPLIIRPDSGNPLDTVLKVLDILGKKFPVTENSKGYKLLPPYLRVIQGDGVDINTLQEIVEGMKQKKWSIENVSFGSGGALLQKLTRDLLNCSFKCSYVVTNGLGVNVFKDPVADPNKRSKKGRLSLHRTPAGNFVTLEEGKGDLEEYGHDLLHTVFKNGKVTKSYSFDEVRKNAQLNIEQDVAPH
From the text: Nampt enzymatic activity.

[4] = tested on: db/db mice; experiment: Electrocardiography in db/db mice; format: in vivo; conditions: 10 mg/kg/day i.p., 4 weeks, vs vehicle
Protocol: Electrocardiography (ECG). Mouse ECG recordings were obtained utilizing 2-3% isoflurane/oxygen anesthesia in lead II configuration. ECGs were acquired for a total duration of 15 min, with 1 min recordings obtained at 5-minute intervals. Heart rate was monitored, while ECG traces were acquired using PowerLab system operated with LabChart 7.2 software (AD Instruments, UK). Data were analyzed offline using the ECG module of LabChart 7.2 software, as reported elsewhere. The intervals (ms) of QTc, JT, and ST elevation (mV) were measured. QT interval was measured from the start of the Q peak to the point where the T wave returns to the isoelectric baseline (TP baseline), and heart rate corrected QT (QTc) interval was obtained using the formula (QTc=QT/(RR/100)^1/2).

[5] = tested on: db/db hearts; experiment: Ex vivo ischemia reperfusion (Langendorff) in db/db hearts; set-up: species or system mice
Protocol: Ex vivo ischemia reperfusion protocol. Mice were injected with heparin (360 USP units, Sigma-Aldrich, MO, USA) and euthanized with Somnasol™ (pentobarbital, 50 mg/kg i.p. body weight). Hearts were then excised and mounted on to the Langendorff apparatus immediately and perfused with Krebs-Hanseleit buffer containing (in mM): 119 NaCl, 25 NaHCO3, 4 KCl, 1 MgCl2, 1.8 CaCl2), 1 MgCl2, 10 glucose and 2 Sodium pyruvate, pH 7.4, that was constantly bubbled with carbogen gas and maintained at 37° C. as described previously. Perfusion was maintained at a constant flow of ˜2.2 ml/min. Hearts were stabilized for 30 min before proceeding to the ischemic phase. Hearts that underwent P7C3 (3 μM) treatment during the Langendorff procedure were allowed to stabilize for 10 mins then a 20 min perfusion with P7C3 (3 μM) (within Krebs-Hanseleit buffer) as pre-ischemic dosing. Cardiac ischemia was induced by the pause in Krebs-Hanseleit buffer perfusion for 45 min. Reperfusion was induced with the induction of Krebs-Hanseleit buffer at a constant flow of ˜2.2 ml/min for 2 hours. […] Image J software was utilized to quantify the ischemic areas for several sections per heart, which were then averaged and divided by the total area of the heart section and multiplied by a factor of ×100(%) to determine the overall damage percentage per heart. […]

[6] = In vitro drug release by membrane dialysis; conditions: PBS pH 7.4, 37° C.
Protocol: In vitro Drug Release. Membrane dialysis method was used to investigate the drug release profile of P7C3 from the NPs. A 0.5 mL sample volume of aptamer conjugated, and non-conjugated P7C3 NPs was filled in dialysis cassettes (MWCO 14 KDa) and placed in 50 mL of PBS (pH 7.4) release medium with stirring at 100 rpm and temperature of 37° C. At predetermined time intervals, 1 mL sample volume of release media was removed, and the release study was continued for 7 days.

For `OC(CNc1ccccc1)Cn1c2ccc(Br)cc2c2cc(Br)ccc21` (stereo not drawn) [P7C3, 3,6-Dibromo-a-[(phenylamino)methyl]-9H-carbazole-9-ethanol], the percent wound closure ([1]; 10 nM) was “not significant”, the percent wound closure ([1]; 100 nM) was “not significant” and the percent wound closure ([1]; 500 nM) was “significantly increased”. The percent wound closure ([1]; 1 μM) was “significantly increased; also recorded: significantly higher”, the percent wound closure ([1]; 2 μM) was “significantly increased” and the “gap closure at 16 hrs” value ([1]; C2C12 cells, 1 μM or 100 nM for 24 hours followed by wire injury) was “significantly augmented”. The “number of activated RAW264.7 cells” value ([2]; vs LPS) was “significantly decreased”, the “non-activated RAW264.7 cells” value ([2]; vs LPS group) was “significantly higher” and the “cardiac Nampt activity” value [3] was “significantly increased”. The JT interval [4] was “significantly attenuated”, the QTc interval [4] was “significantly attenuated” and the ST elevation [4] was “significantly attenuated”. For the same molecule, the “cardiac effluent Troponin I levels” value ([5]; 30 and 120 minutes post-ischemia) was “significant decrease”, the infarct size ([5]; P7C3 3 μM prior to and following (2 hour reperfusion) ischemia) was 18% and the “cumulative drug release at day 1 (24 h)” value [6] was 100%.
